The source of these data is patent publication US20220401408A1, “COMPOSITIONS AND METHODS FOR RESCUING RETINAL AND CHOROIDAL STRUCTURE AND FUNCTION” (AUCKLAND UNISERVICES LIMITED, priority 2019, published 2022).

The assay has as its system hyperglycemic rats. The assay can be described thus: OCT in hyperglycemic rat diabetic retinopathy model (aneurysms, layer thickness). In kind it is in vivo, SD rats (spontaneously hyperglycemic strain). The source says: Hyperglycemic Rat Diabetic Retinopathy Model—A spontaneously hyperglycemic strain of SD rats, which developed clinical signs of diabetic retinopathy within 4 weeks of birth were identified and isolated within the Vernon Jansen Animal Research Unit, Faculty of Medical and Health Sciences at the University of Auckland. The identification of these rats presenting with hyperglycemia and microaneurysms provided an opportunity to treat a complex, chronic disease model and assess the treatment effect based upon objective, measurable endpoints, despite lacking precise information on the etiology of the disease. Inbreeding was carried out over three generations and eyes were screened for abnormalities between 4-8 weeks of age. Additional information about these rats is presented as supplementary information. Glucose levels were tested in non-fasting rats (Lee J J, Yi H Y, Yang J W, Shin J S, Kwon J H, Kim C W. Characterization of streptozotocin-induced diabetic rats and pharmacodynamics of insulin formulations. Biosci Biotechnol Biochem. 2003; 67:2396-401) using a Freestyle Optium Glucometer (Abbott Laboratories Ltd., UK) and Freestyle Optium glucose strips.
Ten rats per group were the selected (10 normal SD and 10 hyperglycemic) grown to 5 weeks of age and assessed using OCT and ERG. The hyperglycemic rat group was then split into two subgroups of five, with one subgroup fed tonabersat once daily for 14 days from weeks 5 to 7 at a low dose level of 0.28 mg/kg in 0.5 g peanut butter, with the other subgroup fed 0.5 g peanut butter only. All animals were assessed again using ERG and OCT at 8 weeks of age before euthanizing animals and removing the eyes for immunohistochemical analysis. Data groups were randomized prior to the statistical comparison. In summary, normal SD and hyperglycemic rats were analyzed with OCT and ERG at 5 weeks of age; the hyperglycemic rats were then split into two groups and fed the vehicle or tonabersat for 14 days during weeks 6 and 7 of age. At week 8, animals were again assessed with ERG and OCT and tissues collected for immunohistochemical analysis. Four tonabersat-treated rats were, however, left until 3 months of age before final ERG and OCT and tissue collection.
Evans Blue Dye Assessment of Vessel Leak—To investigate whether micro- and macro-aneurysms in the hyperglycemic rat retinas (observed using OCT) reflect sites of vessel leak, rats were perfused at the age of 3 months with Evans Blue dye as previously described. Cai S, Yang Q, Hou M, Han Q, Zhang H, Wang J, et al. Alpha-Melanocyte-Stimulating Hormone Protects Early Diabetic Retina from Blood-Retinal Barrier Breakdown and Vascular Leakage via MC4R. Cell Physiol Biochem. 2018; 45:505-22. Briefly, Evans Blue dye (30 mg/ml; Sigma-Aldrich, USA) was dissolved in normal saline and filtered. The dye was delivered as an injection into the rat-tail vein of normal SD and hyperglycemic rats at 45 mg/kg and allowed to circulate for 2 hours. Eyes were enucleated while rats were under deep anesthesia and an intracardial injection of 3M KCl was then administered rapidly to euthanize the animals. The posterior segment cups were fixed whole in 4% paraformaldehyde for 30 min and the retinas removed and laid flat. Evans Blue was stimulated at 559 nm wavelength and visualized by its red fluorescence emission using Olympus FluoView FV1000 (Olympus Corporation, Tokyo, Japan). […]

[1] abbreviates: 0.28 mg/kg once daily 14 days, week 8.

`CC(=O)c1ccc2c(c1)[C@H](NC(=O)c1ccc(F)c(Cl)c1)[C@H](O)C(C)(C)O2` [tonabersat, N-[(3S,4S)-6-acetyl-3-hydroxy-2,2-dimethyl-3,4-dihydrochromen-4-yl]-3-chloro-4-fluorobenzamide]: under setting [1], the “number and size of microaneurysms after treatment” value is reported as “differences”; the “retinal layer thickness (INL or ONL) or thickness of the choroid, treated vs untreated” value was “no significant difference”. The “hyperreflective spot on OCT after treatment” value (0.28 mg/kg once daily for 14 days, 8 weeks) was “barely visible”. In addition, under “DR model, daily treatment for two weeks”, the “clinical signs, including the presence of aneurysms” value was “reduced”. Also, where the note is “oral, DR model”, the “micro- and macro-aneurysms compared to placebo controls” value is on record as “regression”.
